Where no end group is shown, it is not given here. DAG = diacylglycerol ester at the C-terminus
What was measured:
IL-6 = IL-6 mRNA (real-time PCR) and IL-6 protein (ELISA) in fibroblasts stimulated with PDAG; format: cell-based; conditions: 100 pg/ml PDAG, 24 h
Method: Fibroblasts were stimulated with synthetic PDAG for 24 h. RNA was extracted from the fibroblasts and IL-6 transcripts were measured by real-time PCR and IL-6 protein was measure in the media by ELISA. […] Likewise approximately 2-fold more IL-6 protein in the media of the PDAG treated fibroblasts (P=0.0001) was measured.

NALP3 = NALP3 transcripts in primary human fibroblasts incubated with PDAG; format: cell-based; conditions: 100 pg/ml, overnight, P=0.007
Method: (§1) mRNA was extracted from primary human fibroblasts incubated overnight with 100 pg/ml synthetic PDAG. NALP3 and NFκB transcripts were measured.

NFκB = NFκB transcripts in primary human fibroblasts incubated with PDAG; format: cell-based; conditions: 100 pg/ml, overnight, P=0.4
Method: as §1

[1] = tested on: AR39 Chlamydia pneumoniae; assay: Chlamydia pneumoniae clearance from infected THP-1 monocytes (flow cytometry); format: cell-based; conditions: 25 ng/ml and 50 ng/ml
Method: THP-1 monocytes (5×10^4 cells/well) were cultured in Hank's Buffered Saline 1 with 10% FBS in a 24-well microplate. Cells were infected with […] AR39 Chlamydia pneumoniae (CPn) bacteria cells to give an MOI=1 and the infected cells were maintained for 72 hours after infection with a daily media change. Cells were either treated with the PDAG vehicle (0.01% Tween-20 in DMSO) or PDAG (25 ng/ml and 50 ng/ml) 24 hours prior to infection or 24 hours after infection. After the 72 hour incubation period cells were harvested and permeabilized with Cytofix/Cytoperm (BD Pharmingen) and mouse α-CPn monoclonal IgG (clone 61C75) was added and the permeabilized cells incubated for 1 hour. After incubation cells were washed and FITC labeled α-mouse IgG was added and incubated for 1 hour. Cells were again harvested and washed. Quantitation of infected cells was measured by flow cytometry. The viability of cells was determined by trypan blue exclusion.

Hepatitis B virus = assay: HBV replication in HepDES19 cells (core DNA Southern blot); format: cell-based; conditions: HepDES 19 cells
Method: A tetracycline inducible HBV-stable cell line, HepDES19 cells (Guo, 2007), were maintained in DMEM/F-12 medium with penicillin and streptomycin (Invitrogen), 10% FBS, 500 μg/ml G418 (Invitrogen) and 1 μg/ml tetracycline (Sigma-Aldrich, St. Louis, Mo.). To initiate the HBV replication in HepDES19 cells, tetracycline was withdrawn from the medium and the cell was cultured for 4-5 days before viral DNA analysis. To treat the cells with pDAG, the peptide was added in the tetracycline free medium and supplied on the cell culture daily. The concentration of solvent DMSO was adjusted to 0.01% in every treatment.
HBV core DNA was extracted from pDAG-treated HepDES19 cells as described previously (Guo, 2009). Briefly, cells from one 35 mm dish were lysed with 0.5 ml of lysis buffer (10 mM Tris-HCl pH 8.0, 10 mM EDTA, 1% NP40 and 2% sucrose) at 37° C. for 10 minutes. Cell debris and nuclei were removed by centrifugation and the supernatant was mixed with […] of 35% polyethylene glycol (PEG-8000) containing 1.5 M NaCl. After 1 hour incubation in ice, viral nucleocapsids were pelleted by centrifugation at 10,000 rpm for 5 min at 4° C., followed by 1 hour digestion at 37° C. in 200 μl of digestion buffer [0.5 mg/ml pronase (Calbiochem), 0.5% SDS, 150 mM NaCl, 25 mM Tris-HCl pH 8.0, and 10 mM EDTA]. […]

M. tuberculosis IgM = tested on: M. tuberculosis IgM; design: species or system New Zealand White rabbits; conditions: rabbit, in vivo
Salmonella typhimurium = assay: Lethal Salmonella typhimurium challenge in mice; format: in vivo, Swiss Webster mice
Method: Swiss Webster mice were challenged with a lethal dose, 5×10^3 cfu/mouse of Salmonella typhimurium. Fifteen of the mice were treated with 5 μg/ml PDAG 24 hours prior to the lethal inoculation. Mice were maintained and monitored daily for 10 days. […] By day 10, 12 mice in the PDAG treated group remained alive, whereas all had died in the untreated group. P<0.0001.

[2] = Stability of PDAG to hydrolysis; format: physicochemical; conditions: acidic conditions

Substance	IL-6 protein in the media (IL-6; ELISA, vs control, P=0.0001)	IL-6 mRNA levels (IL-6; vs untreated cells, P=0.001)	NALP3 transcripts increase (NALP3)	NFκB transcripts increase (NFκB)	Chlamydia pneumoniae clearance from infected monocytes [1]	Hepatitis B virus replication (Hepatitis B virus)	antigen specific IgM production (M. tuberculosis IgM)	mice remaining alive by day 10 (Salmonella typhimurium; fifteen treated mice, 5 μg/ml PDAG 24 hours prior to lethal inoculation, all untreated died, P<0.0001)	disease progression (Salmonella typhimurium; mice infected with a lethal dose of Salmonella typhimurium)	day on which mortality was first observed (Salmonella typhimurium; mice, 5×10^3 cfu/mouse, 5 μg/ml PDAG 24 hours prior to inoculation, control group day 4)	IgM titer, FCA+PDAG vs FCA only (M. tuberculosis IgM)	lability to hydrolysis [2]
acALYDKGYTSKEQKDCVGI-DAG (Ac-ALYDKGYTSKEQKDCVGI-{DAG}) [PDAG, Peptidyl diacylglyceride: N-acetylated 18-mer peptide esterified at C-terminal isoleucine to 1-stearoyl-2-arachidonoyl-sn-glycerol]	approximately 2 fold	increase IL-6 mRNA levels	1.75 fold	did not	induce Chlamydia pneumoniae clearance	suppresses Hepatitis B virus replication	two-fold increase	12 mice	significantly delays disease progression	7 days	–	–
acALYDKGYTSKEQKDCVGI-DAG [native PDAG]	–	–	–	–	–	–	–	–	–	–	significantly greater	especially labile to hydrolysis under acidic conditions
PDAG peptide: Peptide portion of PDAG without the lipid moiety (acALYDKGYTSKEQKDCVGI, SEQ ID NO:8) (Ac-ALYDKGYTSKEQKDCVGI)	–	–	–	–	induce Chlamydia pneumoniae clearance	–	–	–	–	–	–	–
